Biological target: BRAF^V600E protein (Homo sapiens, UniProt P15056, V600E)
Experiment: HiBiT cellular BRAF V600E degradation assay
Type: cell-based
Conditions: 24 h incubation; for DC50: A375.10 cells (HiBiT tag knocked in at N-terminal of BRAF V600E), concentration at which 50% of total cellular BRAF V600E is degraded; for Emax: A375.10 cells, Emax = amount of residual protein remaining in the cell after compound treatment, read-out: HiBit 24 h Emax

Sequence of BRAF^V600E protein (P15056 whole entry V600E): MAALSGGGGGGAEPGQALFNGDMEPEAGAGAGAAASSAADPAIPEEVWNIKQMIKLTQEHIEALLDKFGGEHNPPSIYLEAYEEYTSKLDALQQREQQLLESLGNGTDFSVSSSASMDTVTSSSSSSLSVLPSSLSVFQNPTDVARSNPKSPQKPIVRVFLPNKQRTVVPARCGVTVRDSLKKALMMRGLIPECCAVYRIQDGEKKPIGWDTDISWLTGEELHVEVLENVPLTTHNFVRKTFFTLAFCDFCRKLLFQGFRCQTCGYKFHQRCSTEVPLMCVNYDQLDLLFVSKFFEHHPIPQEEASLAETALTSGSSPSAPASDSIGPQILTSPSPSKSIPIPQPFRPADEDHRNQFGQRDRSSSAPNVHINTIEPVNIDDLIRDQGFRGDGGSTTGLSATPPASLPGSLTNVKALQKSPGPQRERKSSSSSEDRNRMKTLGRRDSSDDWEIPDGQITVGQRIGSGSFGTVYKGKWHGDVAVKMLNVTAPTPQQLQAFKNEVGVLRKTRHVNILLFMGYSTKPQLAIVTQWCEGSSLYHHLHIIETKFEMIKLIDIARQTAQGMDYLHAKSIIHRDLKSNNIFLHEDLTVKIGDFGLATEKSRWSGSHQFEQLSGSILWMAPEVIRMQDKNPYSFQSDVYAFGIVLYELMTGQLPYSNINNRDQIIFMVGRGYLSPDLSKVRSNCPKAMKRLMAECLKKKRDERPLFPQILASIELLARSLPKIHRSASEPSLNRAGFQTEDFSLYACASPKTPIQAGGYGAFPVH

SMILES	DC50 [nM]	Emax [%]
CCN(C)S(=O)(=O)Nc1ccc(F)c(C(=O)c2c[nH]c3ncc(-c4cnc(N5CCC(OCC6CCN(c7ccc(NC8CCC(=O)NC8=O)cc7F)CC6)CC5)nc4)cc23)c1F (stereo not shown) [Example 182, 5-[2-[4-[[1-[4-[(2,6-dioxo-3-piperidyl)amino]-2-fluoro-phenyl]-4-piperidyl]methoxy]-1-piperidyl]pyrimidin-5-yl]-3-[3-[[ethyl(methyl)sulfamoyl]amino]-2,6-difluoro-benzoyl]-1H-pyrrolo[2,3-b]pyridine]	17.9	7.7
CCN(C)S(=O)(=O)Nc1ccc(F)c(C(=O)c2c[nH]c3ncc(-c4ccc(N5CCN(C(=O)CC6(O)CCN(c7ccc(NC8CCC(=O)NC8=O)c(F)c7)CC6)CC5)cc4)cc23)c1F (stereo not shown) [Example 184, 5-[4-[4-[2-[1-[4-[(2,6-dioxo-3-piperidyl)amino]-3-fluoro-phenyl]-4-hydroxy-4-piperidyl]acetyl]piperazin-1-yl]phenyl]-3-[3-[[ethyl(methyl)sulfamoyl]amino]-2,6-difluoro-benzoyl]-1H-pyrrolo[2,3-b]pyridine]	3.54	9.04
CCN(C)S(=O)(=O)Nc1ccc(Cl)c(C(=O)c2c[nH]c3ncc(-c4cnc(N5CCN(C(=O)CC6(O)CCN(c7ccc(NC8CCC(=O)NC8=O)cc7F)CC6)CC5)nc4)cc23)c1F (stereo not shown) [Example 185, 3-[6-chloro-3-[[ethyl(methyl)sulfamoyl]amino]-2-fluoro-benzoyl]-5-[2-[4-[2-[1-[4-[(2,6-dioxo-3-piperidyl)amino]-2-fluoro-phenyl]-4-hydroxy-4-piperidyl]acetyl]piperazin-1-yl]pyrimidin-5-yl]-1H-pyrrolo[2,3-b]pyridine]	6.48	7.43
CCN(C)S(=O)(=O)Nc1ccc(F)c(C(=O)c2c[nH]c3ncc(-c4cnc(N5CCN(C(=O)CC6(O)CCN(c7ccc(NC8CCC(=O)NC8=O)cc7F)CC6)CC5)c(C#N)c4)cc23)c1F (stereo not shown) [Example 186, 5-[5-cyano-6-[4-[2-[1-[4-[(2,6-dioxo-3-piperidyl)amino]-2-fluoro-phenyl]-4-hydroxy-4-piperidyl]acetyl]piperazin-1-yl]-3-pyridyl]-3-[3-[[ethyl(methyl)sulfamoyl]amino]-2,6-difluoro-benzoyl]-1H-pyrrolo[2,3-b]pyridine]	5.45	8.35
CCN(C)S(=O)(=O)Nc1ccc(F)c(C(=O)c2c[nH]c3ncc(-c4cnc(N5CCN(C(=O)CC6(O)CCN(c7ccc(NC8CCC(=O)NC8=O)cc7F)CC6)CC5)cn4)cc23)c1F (stereo not shown) [Example 187, 5-[5-[4-[2-[1-[4-[(2,6-dioxo-3-piperidyl)amino]-2-fluoro-phenyl]-4-hydroxy-4-piperidyl]acetyl]piperazin-1-yl]pyrazin-2-yl]-3-[3-[[ethyl(methyl)sulfamoyl]amino]-2,6-difluoro-benzoyl]-1H-pyrrolo[2,3-b]pyridine]	3.6	7.8
CCN(C)S(=O)(=O)Nc1ccc(F)c(C(=O)c2c[nH]c3ncc(-c4cnc(N5CCN(C(=O)CC6(O)CCN(c7ccc(NC8CCC(=O)NC8=O)cc7F)CC6)CC5)c(F)c4)cc23)c1F (stereo not shown) [Example 188, 5-[6-[4-[2-[1-[4-[(2,6-dioxo-3-piperidyl)amino]-2-fluoro-phenyl]-4-hydroxy-4-piperidyl]acetyl]piperazin-1-yl]-5-fluoro-3-pyridyl]-3-[3-[[ethyl(methyl)sulfamoyl]amino]-2,6-difluoro-benzoyl]-1H-pyrrolo[2,3-b]pyridine]	4.5	5.98
CCN(C)S(=O)(=O)Nc1ccc(F)c(C(=O)c2c[nH]c3ncc(-c4ccc(N5CCN(C(=O)CC6(O)CCN(c7ccc(NC8CCC(=O)NC8=O)cc7F)CC6)CC5)cc4C)cc23)c1F (stereo not shown) [Example 189, 5-[4-[4-[2-[1-[4-[(2,6-dioxo-3-piperidyl)amino]-2-fluoro-phenyl]-4-hydroxy-4-piperidyl]acetyl]piperazin-1-yl]-2-methyl-phenyl]-3-[3-[[ethyl(methyl)sulfamoyl]amino]-2,6-difluoro-benzoyl]-1H-pyrrolo[2,3-b]pyridine]	58.4	14.9
O=C1CCC(Nc2ccc(N3CCC(O)(CC(=O)N4CCN(c5ccc(-c6cnc7[nH]cc(C(=O)c8c(F)ccc(NS(=O)(=O)N9CC[C@@H](F)C9)c8F)c7c6)cn5)CC4)CC3)c(F)c2)C(=O)N1 (stereo partly drawn) [Example 190, (3R)—N-[3-[5-[6-[4-[2-[1-[4-[(2,6-dioxo-3-piperidyl)amino]-2-fluoro-phenyl]-4-hydroxy-4-piperidyl]acetyl]piperazin-1-yl]-3-pyridyl]-1H-pyrrolo[2,3-b]pyridine-3-carbonyl]-2,4-difluoro-phenyl]-3-fluoro-pyrrolidine-1-sulfonamide]	2.72	7.07
O=C1CCC(Nc2ccc(N3CCC(O)(CC(=O)N4CCN(c5ccc(-c6cnc7[nH]cc(C(=O)c8c(F)ccc(NS(=O)(=O)N9CC[C@@H](F)C9)c8F)c7c6)cc5)CC4)CC3)c(F)c2)C(=O)N1 (stereo partly drawn) [Example 191, (3R)—N-[3-[5-[4-[4-[2-[1-[4-[(2,6-dioxo-3-piperidyl)amino]-2-fluoro-phenyl]-4-hydroxy-4-piperidyl]acetyl]piperazin-1-yl]phenyl]-1H-pyrrolo[2,3-b]pyridine-3-carbonyl]-2,4-difluoro-phenyl]-3-fluoro-pyrrolidine-1-sulfonamide]	3.89	7.76
CCN(C)S(=O)(=O)Nc1ccc(F)c(C(=O)c2c[nH]c3ncc(-c4ccc(N5CCN(C(=O)CC6(O)CCN(c7ccc(NC8CCC(=O)NC8=O)cc7F)CC6)CC5)c(C)c4)cc23)c1F (stereo not shown) [Example 192, 5-[4-[4-[2-[1-[4-[(2,6-dioxo-3-piperidyl)amino]-2-fluoro-phenyl]-4-hydroxy-4-piperidyl]acetyl]piperazin-1-yl]-3-methyl-phenyl]-3-[3-[[ethyl(methyl)sulfamoyl]amino]-2,6-difluoro-benzoyl]-1H-pyrrolo[2,3-b]pyridine]	13.9	8.18
CCN(C)S(=O)(=O)Nc1ccc(F)c(C(=O)c2c[nH]c3ncc(-c4ccc(N5CCN(C(=O)CC6(O)CCN(c7ccc8c(N9CCC(=O)NC9=O)nn(C)c8c7)CC6)CC5)nc4)cc23)c1F [Example 193, 3-(2,4-dioxohexahydropyrimidin-1-yl)-6-[4-[2-[4-[5-[3-[3-[[ethyl(methyl)sulfamoyl]amino]-2,6-difluoro-benzoyl]-1H-pyrrolo[2,3-b]pyridin-5-yl]-2-pyridyl]piperazin-1-yl]-2-oxo-ethyl]-4-hydroxy-1-piperidyl]-1-methyl-indazole]	1.7	7.39
CCN(C)S(=O)(=O)Nc1ccc(F)c(C(=O)c2c[nH]c3ncc(-c4cnc(N5CCN(C(=O)CC6(O)CCN(c7ccc(N8CCC(=O)NC8=O)cc7F)CC6)CC5)c(F)c4)cc23)c1F [Example 194, 5-[6-[4-[2-[1-[4-(2,4-dioxohexahydropyrimidin-1-yl)-2-fluoro-phenyl]-4-hydroxy-4-piperidyl]acetyl]piperazin-1-yl]-5-fluoro-3-pyridyl]-3-[3-[[ethyl(methyl)sulfamoyl]amino]-2,6-difluoro-benzoyl]-1H-pyrrolo[2,3-b]pyridine]	4.5	8.29
CCN(C)S(=O)(=O)Nc1ccc(F)c(C(=O)c2c[nH]c3ncc(-c4cc(F)c(N5CCN(C(=O)CC6(O)CCN(c7ccc(NC8CCC(=O)NC8=O)cc7F)CC6)CC5)c(F)c4)cc23)c1F (stereo not shown) [Example 195, 5-[4-[4-[2-[1-[4-[(2,6-dioxo-3-piperidyl)amino]-2-fluoro-phenyl]-4-hydroxy-4-piperidyl]acetyl]piperazin-1-yl]-3,5-difluoro-phenyl]-3-[3-[[ethyl(methyl)sulfamoyl]amino]-2,6-difluoro-benzoyl]-1H-pyrrolo[2,3-b]pyridine]	6.23	7.6
CCN(C)S(=O)(=O)Nc1ccc(F)c(C(=O)c2c[nH]c3ncc(-c4cnc(N5CC6(C5)CC(O)(C5CCN(c7ccc(NC8CCC(=O)NC8=O)cc7F)CC5)C6)nc4)cc23)c1F (stereo not shown) [Example 196, 5-[2-[6-[1-[4-[(2,6-dioxo-3-piperidyl)amino]-2-fluoro-phenyl]-4-piperidyl]-6-hydroxy-2-azaspiro[3.3]heptan-2-yl]pyrimidin-5-yl]-3-[3-[[ethyl(methyl)sulfamoyl]amino]-2,6-difluoro-benzoyl]-1H-pyrrolo[2,3-b]pyridine]	1.14	6.81
CCN(C)S(=O)(=O)Nc1ccc(F)c(C(=O)c2c[nH]c3ncc(-c4ccc(N5CCN(C(=O)CC6(O)CCN(c7ccc(NC8CCC(=O)NC8=O)cc7C(F)F)CC6)CC5)nc4)cc23)c1F (stereo not shown) [Example 197, 5-[6-[4-[2-[1-[2-(difluoromethyl)-4-[(2,6-dioxo-3-piperidyl)amino]phenyl]-4-hydroxy-4-piperidyl]acetyl]piperazin-1-yl]-3-pyridyl]-3-[3-[[ethyl(methyl)sulfamoyl]amino]-2,6-difluoro-benzoyl]-1H-pyrrolo[2,3-b]pyridine]	7.36	8.11
CCN(C)S(=O)(=O)Nc1ccc(F)c(C(=O)c2c[nH]c3ncc(-c4ccc(N5CCN(C(=O)CC6(O)CCN(c7ccc(NC8CCC(=O)NC8=O)cc7F)CC6)CC5)c(F)c4)cc23)c1F (stereo not shown) [Example 198, 5-[4-[4-[2-[1-[4-[(2,6-dioxo-3-piperidyl)amino]-2-fluoro-phenyl]-4-hydroxy-4-piperidyl]acetyl]piperazin-1-yl]-3-fluoro-phenyl]-3-[3-[[ethyl(methyl)sulfamoyl]amino]-2,6-difluoro-benzoyl]-1H-pyrrolo[2,3-b]pyridine]	2.42	6.19
CCN(C)S(=O)(=O)Nc1ccc(F)c(C(=O)c2c[nH]c3ncc(-c4cnc(N5CC6(CC(C7CCN(c8ccc(NC9CCC(=O)NC9=O)cc8F)CC7)C6)C5)nc4)cc23)c1F (stereo not shown) [Example 199, 5-[2-[6-[1-[4-[(2,6-dioxo-3-piperidyl)amino]-2-fluoro-phenyl]-4-piperidyl]-2-azaspiro[3.3]heptan-2-yl]pyrimidin-5-yl]-3-[3-[[ethyl(methyl)sulfamoyl]amino]-2,6-difluoro-benzoyl]-1H-pyrrolo[2,3-b]pyridine]	28.3	7.17
